{"source": "patent US5763442A", "about": "“Anti-parasitic activity” (Universiteit Van Pretoria, priority 1995, dated 1998)", "key": {"[1]": {"tested_on": "P. falciparum (RB-1)", "test": "Direct antimalarial activity, flow cytometry, strain RB-1", "assay_type": "cell-based, Plasmodium falciparum", "details": "for inhibition at 0.5 µg/mL: Plasmodium falciparum, 0.5 μg/ml, 48 h, FIG. 2, read-out: inhibition of growth of P. falciparum; for activity against the malaria microorganism Plasmodium falciparum: summary statement", "method": "To investigate the direct antimalarial activity of the riminophenazines B669, B4100, B4103, B4112, B4121, B4158 and B4169 against a laboratory strain of P. falciparum the following experiment was done:\nA laboratory strain of P. falciparum (RB-1; obtained from Dr B L Sharp, National Malaria Research Programme, MRC, Durban) was maintained.\nFor these experiments malaria cultures of haematocrit 5.0% and initial parasitemia 2.0% were used. The malaria infected erythrocytes (ring stage) were incubated in microtitre plates with serial dilutions of B669, B4100, B4103, B4112, B4121, B4158 and B4169 (0.125-2 μg/ml) for 48 hours and processed for analysis on the flow cytometer as described in Example 3."}, "[2]": {"tested_on": "P. falciparum (FAC 8)", "test": "Flow cytometry parasitaemia, chloroquine resistant strain FAC 8, chloroquine with/without B4112", "assay_type": "cell-based, Plasmodium falciparum", "method": "To test the activity of B4112 to reverse chloroquine resistance in Plasmodium falciparum, the following experiment was done:\nA chloroquine resistant strain of P. falciparum (FAC 8) was obtained from Dr P Smith, University of Cape Town (originally from Dr A F Cowman, Royal Melbourne Hospital, Victoria, Australia).\nMalaria infected erythrocytes (ring stage) were diluted with human O-positive red blood cells together with RPMI containing 44 mg/l hypoxanthine and 10% human type A serum to a parasitaemia of 2% and a haematocrit of 5%. This suspension was incubated in a gassed desiccator (5% O2, 5% CO2 and 90% N2) with serial dilutions of chloroquine ranging from 61-500 nM in 96-well microtitre culture plates for 48 hours in the presence or absence of a fixed concentration of B4112 (100 ng/ml). Relevant solvent controls were included.\nAt the end of the incubation period, 100 μl of the medium was removed from each well and replaced with a fixation solution containing 10 mM TRIS, 10 mM Na-Azide and 150 mM Na Cl. The plates were stored overnight at 4° C. and then 25 μl aliquots from each well were stained in test tubes with 0.5 ml thiazole orange at a concentration of 0.25 μg/ml in phosphate-buffered saline (PBS). After an incubation period of 1 hour at room temperature (in the dark), the tubes were placed on ice and the level of parasitaemia determined by flow cytometry using a Coulter Epics Profile II (Coulter Electronics Ltd, Hialeah, PLA, USA)."}, "[3]": {"tested_on": "Plasmodium falciparum (RB-1)", "test": "Microscopic parasitaemia, chloroquine resistant strain RB-1 (reversal of chloroquine resistance)", "assay_type": "cell-based", "details": "24 h", "method": "(§1) The activity of riminophenazines to reverse chloroquine resistance in Plasmodium falciparum was tested in the following manner:\n(§2) A preliminary series of experiments were carried out using two laboratory strains of P. falciparum (RB-1 and Fab-9). These strains were obtained from the Medical Research Council, Durban, where they were characterised as being either mildly resistant or sensitive to chloroquine. The isolates were maintained in suspension culture in known manner (as described by Freese J A, Markus M B and Golenser J, 1991; Bulletin of the World Health Organization 69: 707-712).\n(§3) Infected erythrocytes were diluted with human O-positive red blood cells to a parasitaemia of 0.2-0.9% and suspended to 3% in RPMI containing 44 mg/l hypoxanthine and 10% human type O serum. Aliquots (100 μl) of the suspension were dispensed into the wells of 96-well microtitre plates. To these suspensions 100 μl of the medium were added containing either chloroquine or B669 alone or in combination. The final drug concentrations were 31, 62, 125, 250 500 and 1000 nM for chloroquine and 0.125, 0.25, 0.5 and 1.0 μg/ml for B669. Relevant solvent controls were included. The plates were incubated for 24 hours at 38° C. in a desiccator gassed with 5% O2, 5% CO2 and 90% N2. Thin blood smears were prepared from each well, stained with Giemsa stain and the percentage of red blood cells infected by at least one parasite determined microscopically."}, "[4]": {"tested_on": "Plasmodium falciparum (Fab-9)", "test": "3H-hypoxanthine uptake, chloroquine sensitive strain Fab-9", "assay_type": "cell-based", "details": "Plasmodium falciparum, read-out: PERCENTAGE INHIBITION (3H-hypoxanthine uptake)", "method": "(§4) The following experiment was done to confirm previous results which were obtained microscopically and details of which are set out in Example 1.\n(§5) For this experiment the same two strains of P. falciparum, as used in Example 1 (RB-1 and Fab-9) were again used. Infected erythrocytes were diluted with human O-positive red blood cells to a parasitaemia of 0.2-0.9% and suspended to 3% in RPMI containing 44 mg/l hypxanthine and 10% human type serum. Aliquots (100 μl) of the suspension were dispensed into the wells of 96-well microtitre plates. To these suspensions 100 μl of the medium were added containing either chloroquine or B669 alone or a combination of chloroquine and B669. Relevant solvent controls were included. Negative control wells were also included containing uninfected red blood cells. The plates were incubated at 38° C. in a desiccator gassed with 5% O2, 5% CO2 and 90% N2. After 24 hours 100 μl culture medium of each well was replaced with […] of hypoxathine--free medium containing 10% human serum and 0,5μ Ci^3 H-hypoxanthine and incubated for a further 18 hours. The contents of the wells were then harvested on to glass fibre filters. The filters were washed with distilled water, dried, haemoglobin dissolved in a sodium bicarbonate solution and placed in scintillation vials containing 4 ml scintillation fluid and counted for 5 min in a liquid scintillation counter.\n(§6) The percentage inhibition was calculated as follows: [formula] where CPM was the mean of two values of counts per minute for each treatment."}, "[5]": {"tested_on": "Plasmodium falciparum (Fab-9)", "test": "Microscopic parasitaemia, chloroquine sensitive strain Fab-9 (reversal of chloroquine resistance)", "assay_type": "cell-based", "details": "24 h", "method": "as §1, §2, §3"}, "[6]": {"tested_on": "Plasmodium falciparum (RB-9)", "test": "3H-hypoxanthine uptake, chloroquine resistant strain (RB-9 [sic])", "assay_type": "cell-based", "details": "Plasmodium falciparum, read-out: PERCENTAGE INHIBITION (3H-hypoxanthine uptake)", "method": "as §4, §5, §6"}, "[7]": {"tested_on": "Plasmodium falciparum (RB-9)", "test": "3H-hypoxanthine uptake, chloroquine resistant strain (RB-9 [sic])", "assay_type": "cell-based", "details": "read-out: PERCENTAGE INHIBITION (3H-hypoxanthine uptake)"}, "[8]": {"tested_on": "malaria parasites", "details": "background, cited from earlier work"}}, "data": [{"smiles": "CC(C)c1ccc(Nc2cc3nc4ccccc4n(-c4ccc(C(C)C)cc4)c-3cc2=NC2CC(C)(C)NC(C)(C)C2)cc1", "note": "[Compound B4158, N,5-bis(4-isopropylphenyl)-3,5-dihydro-3-[(2',2',6',6'-tetramethyl-4-piperidyl)-imino]-2-phenazinarnine]", "values": [{"measurement": "inhibition at 0.5 µg/mL", "setting": "[1]", "result": "> 50", "unit": "%"}, {"measurement": "activity against the malaria microorganism Plasmodium falciparum", "setting": "[1]", "result": "good activity"}]}, {"smiles": "CC1(C)CC(N=c2cc3n(-c4cccc(Cl)c4)c4ccccc4nc-3cc2Nc2cccc(Cl)c2)CC(C)(C)N1", "note": "[Compound B4112, N,5-bis(3-chlorophenyl)-3,5-dihydro-3-[(2',2',6',6'-tetramethyl-4-piperidyl)-imino]-2-phenazinamine]", "values": [{"measurement": "sensitivity of P. falciparum to chloroquine (inhibition)", "setting": "[2]; B4112 100 ng/ml + chloroquine 125 nM, FIG. 1", "result": 100, "unit": "%"}, {"measurement": "inhibition of parasite growth", "setting": "[2]; B4112 per se 100 ng/ml, 48 h", "result": 27, "unit": "%"}, {"measurement": "interaction of B4112 and chloroquine", "setting": "[2]; FAC 8", "result": "clearly interacted synergistically"}, {"measurement": "inhibition at 0.5 µg/mL", "setting": "[1]", "result": "> 50", "unit": "%"}, {"measurement": "activity against the malaria microorganism Plasmodium falciparum", "setting": "[1]", "result": "good activity"}]}, {"smiles": "CCN(CC)CCCC(C)Nc1ccnc2cc(Cl)ccc12", "note": "(centres unmarked) [chloroquine, reference compound]", "values": [{"measurement": "Percentage red blood cells infected with P. falciparum (RB-1)", "setting": "[3]; chloroquine 31 nM alone", "result": 3.5, "unit": "%"}, {"measurement": "Percentage red blood cells infected with P. falciparum (RB-1)", "setting": "[3]; chloroquine 62 nM alone", "result": 3.3, "unit": "%"}, {"measurement": "Percentage red blood cells infected with P. falciparum (RB-1)", "setting": "[3]; chloroquine 125 nM alone", "result": 3.3, "unit": "%"}, {"measurement": "Percentage red blood cells infected with P. falciparum (RB-1)", "setting": "[3]; chloroquine 250 nM alone", "result": 3.1, "unit": "%"}, {"measurement": "Percentage red blood cells infected with P. falciparum (RB-1)", "setting": "[3]; chloroquine 500 nM alone", "result": 3.0, "unit": "%"}, {"measurement": "Percentage red blood cells infected with P. falciparum (RB-1)", "setting": "[3]; chloroquine 1000 nM alone", "result": 0.4, "unit": "%"}, {"measurement": "inhibition at 0.031 µM", "setting": "[4]", "result": 52.5, "unit": "%"}, {"measurement": "inhibition at 0.062 µM", "setting": "[4]", "result": 23.5, "unit": "%"}, {"measurement": "inhibition at 0.125 µM", "setting": "[4]", "result": 48.7, "unit": "%"}, {"measurement": "inhibition at 0.25 µM", "setting": "[4]", "result": 66.9, "unit": "%"}, {"measurement": "inhibition at 0.5 µM", "setting": "[4]", "result": 100, "unit": "%"}, {"measurement": "inhibition at 1 µM", "setting": "[4]", "result": 100, "unit": "%"}, {"measurement": "minimal effective concentration", "setting": "[2]; Plasmodium falciparum, 48 h, read-out: concentration at which chloroquine per se inhibited the growth of the parasite", "result": "≥ 0.25", "unit": "µM"}, {"measurement": "inhibition at 0.125 µM", "setting": "[2]; Plasmodium falciparum, read-out: sensitivity of P. falciparum to chloroquine (inhibition)", "result": 33, "unit": "%"}, {"measurement": "Percentage red blood cells infected with P. falciparum (Fab-9)", "setting": "[5]; chloroquine 31 nM alone", "result": 4.9, "unit": "%"}, {"measurement": "Percentage red blood cells infected with P. falciparum (Fab-9)", "setting": "[5]; chloroquine 62 nM alone", "result": 3.9, "unit": "%"}, {"measurement": "Percentage red blood cells infected with P. falciparum (Fab-9)", "setting": "[5]; chloroquine 125 nM alone, *parasites morphologically abnormal", "result": 2.4, "unit": "%"}, {"measurement": "Percentage red blood cells infected with P. falciparum (Fab-9)", "setting": "[5]; chloroquine 250 nM alone, *parasites morphologically abnormal", "result": 3.1, "unit": "%"}, {"measurement": "Percentage red blood cells infected with P. falciparum (Fab-9)", "setting": "[5]; chloroquine 500 nM alone, *parasites morphologically abnormal", "result": 0.1, "unit": "%"}, {"measurement": "Percentage red blood cells infected with P. falciparum (Fab-9)", "setting": "[5]; chloroquine 1000 nM alone", "result": 0, "unit": "%"}, {"measurement": "inhibition at 0.031 µM", "setting": "[6]", "result": 0, "unit": "%"}, {"measurement": "inhibition at 0.062 µM", "setting": "[6]", "result": 0, "unit": "%"}, {"measurement": "inhibition at 0.125 µM", "setting": "[6]", "result": 8, "unit": "%"}, {"measurement": "inhibition at 0.25 µM", "setting": "[6]", "result": 33, "unit": "%"}, {"measurement": "inhibition at 1 µM", "setting": "[6]", "result": 100, "unit": "%"}, {"measurement": "inhibition at 0.5 µM", "setting": "[7]", "result": 100, "unit": "%"}]}, {"smiles": "CC1(C)CC(N=c2cc3n(-c4cc(Cl)cc(Cl)c4)c4ccccc4nc-3cc2Nc2cc(Cl)cc(Cl)c2)CC(C)(C)N1", "note": "[Compound B4121, N,5-bis(3,5-dichlorophenyl)-3,5-dihydro-3-[(2',2',6',6'-tetramethyl-4-piperidyl)-imino]-2-phenazinamine]", "values": [{"measurement": "activity against the malaria microorganism Plasmodium falciparum", "setting": "[1]", "result": "good activity"}]}, {"smiles": "CC1(C)CC(N=c2cc3n(-c4ccc(C(F)(F)F)cc4)c4ccccc4nc-3cc2Nc2ccc(C(F)(F)F)cc2)CC(C)(C)N1", "note": "[Compound B4103, N,5-bis(4-trifluoromethylphenyl)-3,5-dihydro-3[(2',2',6',6'-tetramethyl-4-piperidyl)imino]-2-phenazinamine]", "values": [{"measurement": "inhibition at 0.5 µg/mL", "setting": "[1]", "result": "> 50", "unit": "%"}]}, {"smiles": "CC1(C)CC(N=c2cc3n(-c4ccc(Cl)c(Cl)c4)c4ccccc4nc-3cc2Nc2ccc(Cl)c(Cl)c2)CC(C)(C)N1", "note": "[Compound B4100, N,5-bis(3,4-dichlorophenyl)-3,5-dihydro-3-[(2',2',6',6'-tetramethyl-4-piperidyl)-imino]-2-phenazinamine]", "values": [{"measurement": "activity against the malaria microorganism Plasmodium falciparum", "setting": "[1]", "result": "good activity"}]}, {"smiles": "COc1ccc(CCN(C)CCCC(C#N)(c2ccc(OC)c(OC)c2)C(C)C)cc1OC", "note": "(centres unmarked) [verapamil]", "values": [{"measurement": "reversal of Pg H1-mediated chloroquine resistance", "setting": "[8]", "result": "can be reversed"}, {"measurement": "side effects of the dose required to reverse resistance", "setting": "[8]; in vivo", "result": "severe side effects in vivo"}]}]}
